Data taken from patent US10201516B2 (The Regents of the University of California, priority 2014, dated 2019).

Tests used:
[1] = tested on: β-catenin/TCF/LEF transcriptional activity; assay: TOPFlash assay in NIH/3T3 cells; type: cell-based, mouse; conditions: for β-catenin/TCF/LEF transcriptional activity (TOPFlash): Ras^V12-transformed NIH/3T3 cells, 0.5 μM for 12 hours (FIG. 10E)
Description: (§1) Tankyrase inhibitors, JW55, Cardinogenl, and JW67, were purchased from R&D Systems. The cells were treated with the inhibitors at 0.5 μM for 12 hours for TOPFlash assays. For sphere formation assays, the cells were cultured in complete medium with different Tankyrase inhibitors.
Cells were transfected with TOPFlash (Addgene#12456), FOPFlash (Addgene#12457) or pGL3-NFAT (Addgene#17870) luciferase reporter constructs by using Fugene6 (Roche). 48th hour post-transfection the luciferase activities in cell lysates were measured using Bright-Glo Luciferase Assay System (Promega) according to the manufacturer's instructions.

NIH/3T3 cells = assay: Sphere formation assay in NIH/3T3 cells; type: cell-based, mouse; conditions: for sphere forming efficiency: K-Ras^V12 transformed NIH/3T3 cells (FIG. 10F); for sphere formation: vector control or H-Ras^V12 transformed NIH/3T3 (FIG. 10F)
Description: as §1
Cells were harvested, counted and seeded into Ultra Low Attachment Culture 96-well plate (Corning Life Science, Catalog number 3261) at 10 or 100 cells per well. The seeded cells and formed spheres were maintained in low serum containing medium with 0.1% FBS or CS. The initiated spheres were observed twice and week. The numbers of formed spheres were counted one month after seeding. The spheres were harvested and re-seeded into 12-well or 24-well plate with complete growth medium at one sphere per well. The re-plated colonies were stained and visualized by 0.05% crystal violet staining (in […]).

CaMKii = assay: Western blot of phospho-CaMKii in Ras-transformed NIH/3T3 cells (and human pancreatic cancer cell lines); type: cell-based, mouse; conditions: NIH/3T3-H-Ras^V12 and vector control cells (FIG. 3B)
Description: (§2) Experimental cells were washed twice in ice-cold PBS and lysed in 1% Triton lysis buffer [25 mmol/L Tris pH 7.5, 150 mmol/L NaCl, 1% Triton X-100, 1 mmol/L EDTA, 1 mmol/L EGTA, 20 mmol/L NaF, 1 mmol/L […], and 1 mmol/L DTT] supplemented with a protease inhibitor cocktail (Roche) and cleared by centrifugation. Protein concentrations were determined by the Bio-Rad Protein Assay (Bio-Rad). Equal amounts of protein extracts were resolved using SDS-PAGE (NuPAGE; Invitrogen), transferred to a nitrocellulose membrane, and immunoblotted with primary antibodies indicated, followed by secondary antibodies labeled with either IRDye800 (Rockland) or Alexa Fluor 680 (Molecular Probes) and were visualized using a LI-COR Odyssey scanner. A complete list of primary antibodies is provided in the Extended Experimental Procedures.

Fzd8 = assay: Western blot of Fzd8 expression in NIH/3T3 cells; type: cell-based, mouse; conditions: NIH/3T3-H-Ras^V12 cells (FIG. 3B)
Description: as §2

[2] = PKC activators, literature; cited from earlier work

With c1coc(-c2nnc3sc(C4CCCCC4)nn23)c1 [cardionogen1] the “β-catenin/TCF/LEF transcriptional activity (TOPFlash)” value [1] was “successfully repressed β-catenin/TCF/LEF transcriptional activity”, the sphere forming efficiency (NIH/3T3 cells) was “still maintained their sphere forming efficiency” and the sphere formation (NIH/3T3 cells) was “inhibited sphere formation”.
For COc1ccc(S(=O)(=O)N(CCO)c2ccccc2CN(C)C/C=C/c2ccc(Cl)cc2)cc1 [KN-93], the “phosphorylation of CaMKii” value (CaMKii) was “reduced phosphorylation of CaMKii”, the Fzd8 expression (Fzd8) was “reduced Fzd8 expression” and the β-catenin transcriptional activity ([1]; NIH/3T3-H-Ras^V12 cells (FIG. 3C)) was “increased β-catenin transcriptional activity”. The “sphere forming efficiency and size of spheroid colonies” value (NIH/3T3 cells; NIH/3T3-H-Ras^V12 cells (FIG. 3D)) was “dramatically enhanced the sphere forming efficiency and the size of spheroid colonies”.
With O=C1Nc2ccccc2C12OCC1(CO2)COC2(OC1)C(=O)Nc1ccccc12 (centres unmarked) [JW67] the “β-catenin/TCF/LEF transcriptional activity (TOPFlash)” value [1] was “successfully repressed β-catenin/TCF/LEF transcriptional activity”, the sphere forming efficiency (NIH/3T3 cells) was “still maintained their sphere forming efficiency” and the sphere formation (NIH/3T3 cells) was “inhibited sphere formation”.
For COc1ccc(C2(CNC(=O)c3ccc(NC(=O)c4ccco4)cc3)CCOCC2)cc1 [JW55], the “β-catenin/TCF/LEF transcriptional activity (TOPFlash)” value [1] was “successfully repressed β-catenin/TCF/LEF transcriptional activity”, the sphere forming efficiency (NIH/3T3 cells) was “still maintained their sphere forming efficiency” and the sphere formation (NIH/3T3 cells) was “inhibited sphere formation”.
In the case of CCCCCCCCCCCCCC(=O)O[C@@H]1[C@@H](C)[C@@]2(O)[C@@H](C=C(CO)C[C@]3(O)C(=O)C(C)=C[C@@H]23)[C@@H]2C(C)(C)[C@]12OC(C)=O [PMA, phorbol-12-myristate-13-acetate, reference compound], the tumor promotion [2] is given as “tumor promoting”.
